Where “and” joins values, the source holds several entries; their conditions need not be identical. Identical values can stand only once.
Tests used:
U251 = conditions: U251, CNS; for CC50: read-out: 50% lethal concentration (LC50)
MDA-MB-231 cells = assay: Cell cycle assay, PI staining, flow cytometry; assay type: cell-based; conditions: MDA-MB-231, 24 h
Method: Cell proliferation is well associated with the regulation of cell cycle progression. Therefore, the effect of 1f on cell cycle distribution was evaluated by flow cytometry in PI-stained cells.
Cell cycle distribution was assessed by propidium iodide (PI) staining followed by flow cytometric analysis. Cells (3 × 10^5/well) were plated in 6-well plates and allowed to adhere for 24 h. To synchronize the cell cycle, the medium was replaced with serum-free medium for 8 h. After synchronization, cells were treated with various concentrations of compound 1f for 24 h. Following treatment, cells were harvested with 1X trypsin, washed with cold PBS, and fixed in 70% ethanol at 4 °C for 2 h. Fixed cells were washed twice with PBS, then incubated overnight in a staining solution containing RNase A (1 µL, 10 mg/mL) and PI (5 µL, 1 mg/mL) in 1X PBS. Cell cycle distribution was subsequently determined using flow cytometry.

[1] = system: MDA-MB-231 breast cancer cells; assay: MTT cell proliferation assay; assay type: cell-based; conditions: MDA-MB-231, 0-200 µM, 72 h
Method: (§1) These MDA-MB-231 breast cancer cells were treated with 1f at different concentrations, i.e., 0, 1.56, 3.125, 6.25, 12.5, 25, 50, 100, and 200 µM, for 72 h.
(§2) MDA-MB-231 breast cancer cells and MCF-10A normal breast epithelial cells (from ATCC, Manassas, VA, USA) were seeded into 96-well plates at a density of 4 × 10^3 cells per well. After overnight incubation at 37 °C, the cells were treated with varying concentrations of compound 1f (0, 1.56, 3.125, 6.25, 12.5, 25, 50, 100, and 200 µM) and incubated for an additional 72 h. Untreated cells served as the negative control. Subsequently, 10 µL of the MTT solution (5 mg/mL) was added to each well, and the plates were incubated for 3 h to assess cell viability. The medium was then discarded, and the absorbance was measured at 570 nm using a microplate reader (Promega GloMax, Madison, WI, USA).

[2] = system: MDA-MB-231 breast cancer cell line; assay: Annexin V-FITC/PI apoptotic assay (FACS); assay type: cell-based; conditions: MDA-MB-231, 3.33 µM
Method: Apoptosis is considered a preventive mechanism against cancer dissemination, as it plays a crucial role in eliminating excessively proliferating and mutated cancer cells from the body. Following the administration of cytotoxic drugs as treatment for various types of cancer, apoptosis is a significant contributor to cellular death. […] We proceeded to investigate whether compound 1f triggers apoptosis or not. The MDA-MB-231 breast cancer cell line was treated with 1f for 24, 48, and 72 h. A quantitative evaluation of apoptotic activity was performed using FACS.
To evaluate the pro-apoptotic effect of compound 1f, Annexin V-FITC/PI dual staining was conducted. Cells were seeded into 12-well plates at a density of 1 × 10^5 cells per well and treated with the compound for 24, 48, and 72 h. Post-treatment, the cells were collected using 1X trypsin, including both floating and adherent cells, and centrifuged at 4000 rpm for 5 min. The resulting pellet was resuspended in 100 µL of 1X Annexin V binding buffer and stained with Annexin V-FITC, followed by a 15 min incubation in the dark at 4 °C. Cells were then washed, resuspended in fresh binding buffer, and stained with propidium iodide before immediate analysis via flow cytometry.

[3] = system: MCF-10a (normal breast cells)
Method: as §1, §2

SMILES: C=C1CCC2C3(C)COC(c4cn(-c5ccccc5)nc4-c4ccccc4)OC3CCC2(C)C1CC=C1C(=O)OCC1O (stereo not shown) [1a]
- GI50 (U251): 1840 nM
- Total growth inhibition (TGI) (U251): 3710 nM
- CC50 (U251): 7480 nM

SMILES: C=C1CCC2C3(C)COC(c4cn(-c5ccccc5)nc4-c4cccc([N+](=O)[O-])c4)OC3CCC2(C)C1CC=C1C(=O)OCC1O (stereo not shown) [1b]
- GI50 (U251): 1740 nM
- Total growth inhibition (TGI) (U251): 3350 nM
- CC50 (U251): 6460 nM

SMILES: C=C1CCC2C3(C)COC(c4cn(-c5ccccc5)nc4-c4cccc(F)c4)OC3CCC2(C)C1CC=C1C(=O)OCC1O (stereo not shown) [1c]
- GI50 (U251): 1810 nM
- Total growth inhibition (TGI) (U251): 5610 nM

SMILES: C=C1CCC2C3(C)COC(c4cn(-c5ccccc5)nc4-c4cccc(Cl)c4)OC3CCC2(C)C1CC=C1C(=O)OCC1O (stereo not shown) [1d]
- GI50 (U251): 1590 nM
- Total growth inhibition (TGI) (U251): 3000 nM

SMILES: C=C1CCC2C3(C)COC(c4cn(-c5ccccc5)nc4-c4cccc(Br)c4)OC3CCC2(C)C1CC=C1C(=O)OCC1O (stereo not shown) [1e]
- GI50 (U251): 1690 nM
- Total growth inhibition (TGI) (U251): 3130 nM

SMILES: C=C1CCC2C3(C)COC(c4cn(-c5ccccc5)nc4-c4ccc(F)cc4)OC3CCC2(C)C1CC=C1C(=O)OCC1O (stereo not shown) [1f, 3,19-(N-Phenyl-3-(4-fluorophenyl)-pyrazole) Acetal of Andrographolide]
- G1 (%) (MDA-MB-231 cells; 3.33 µM): 77.36 ± 0.69%
- G2 (%) (MDA-MB-231 cells; 3.33 µM): 6.94 ± 0.28%
- S (%) (MDA-MB-231 cells; 3.33 µM): 14.2% and 14.4 ± 0.95%
- G1 (%) (MDA-MB-231 cells; 5.00 µM): 62.83 ± 1.2%
- G2 (%) (MDA-MB-231 cells; 5.00 µM): 4.87 ± 0.26%
- S (%) (MDA-MB-231 cells; 5.00 µM): 25.2% and 26.5 ± 0.96%
- G1 (%) (MDA-MB-231 cells; 6.66 µM): 59.6% and 57.83 ± 1.2%
- G2 (%) (MDA-MB-231 cells; 6.66 µM): 4.01% and 3.82 ± 0.20%
- S (%) (MDA-MB-231 cells; 6.66 µM): 21.9 ± 1.03%
- anti-proliferation activity (MTT) [1]: strong dose-dependent anti-proliferation activity
- apoptotic cells (total) ([2]; 24 h): remained almost the same
- apoptotic cells (total) ([2]; 48 h): 44%
- early apoptosis (Q3) ([2]; 48 h): 10.3%
- late apoptosis (Q2) ([2]; 48 h): 33.0%
- apoptotic cells (total) ([2]; 72 h): 55%
- early apoptosis (Q3) ([2]; 72 h): 14.7%
- late apoptosis (Q2) ([2]; 72 h): 40.6%
- CC50 [3]: 50000 nM
- GI50 (U251): 2360 nM
- Total growth inhibition (TGI) (U251): 5630 nM

SMILES: C=C1CCC2C3(C)COC(c4cn(-c5ccccc5)nc4-c4ccc(Cl)cc4)OC3CCC2(C)C1CC=C1C(=O)OCC1O (stereo not shown) [1g]
- GI50 (U251): 2390 nM
- Total growth inhibition (TGI) (U251): 3190 nM

SMILES: C=C1CCC2C3(C)COC(c4cn(-c5ccccc5)nc4-c4ccc(Br)cc4)OC3CCC2(C)C1CC=C1C(=O)OCC1O (stereo not shown) [1h]
- GI50 (U251): 2110 nM
- Total growth inhibition (TGI) (U251): 2890 nM

SMILES: C=C1CCC2C3(C)COC(c4cn(-c5ccccc5)nc4-c4ccc(C)cc4)OC3CCC2(C)C1CC=C1C(=O)OCC1O (stereo not shown) [1i]
- GI50 (U251): 2610 nM
- Total growth inhibition (TGI) (U251): 3120 nM

SMILES: C=C1CCC2C3(C)COC(c4cn(-c5ccccc5)nc4-c4ccc(OC)cc4)OC3CCC2(C)C1CC=C1C(=O)OCC1O (stereo not shown) [1j]
- GI50 (U251): 1660 nM
- Total growth inhibition (TGI) (U251): 3100 nM

Source: publication PMC12298351, “Novel 3,19-(N-Phenyl-3-(4-fluorophenyl)-pyrazole) Acetal of Andrographolide Promotes Cell Cycle Arrest and Apoptosis in MDA-MB-231 Breast Cancer Cells” (Pharmaceuticals, 2025)
